These results are taken from ChEMBL document CHEMBL6121027, “Novel Bicyclic Heterocyclic Compounds as CD73 Inhibitors for Treating Cancer” (ACS Med Chem Lett, 2025).

This assay addresses 5'-nucleotidase (Homo sapiens, UniProt P21589). As to the kind of experiment: Inhibition of recombinant human CD73 preincubated for 15 mins followed by AMP addition measured after 10 mins by LC/MS analysis.

One may read the IC50 as the point on the concentration scale where inhibition reaches its midpoint.

5'-nucleotidase, sequence (P21589 whole entry): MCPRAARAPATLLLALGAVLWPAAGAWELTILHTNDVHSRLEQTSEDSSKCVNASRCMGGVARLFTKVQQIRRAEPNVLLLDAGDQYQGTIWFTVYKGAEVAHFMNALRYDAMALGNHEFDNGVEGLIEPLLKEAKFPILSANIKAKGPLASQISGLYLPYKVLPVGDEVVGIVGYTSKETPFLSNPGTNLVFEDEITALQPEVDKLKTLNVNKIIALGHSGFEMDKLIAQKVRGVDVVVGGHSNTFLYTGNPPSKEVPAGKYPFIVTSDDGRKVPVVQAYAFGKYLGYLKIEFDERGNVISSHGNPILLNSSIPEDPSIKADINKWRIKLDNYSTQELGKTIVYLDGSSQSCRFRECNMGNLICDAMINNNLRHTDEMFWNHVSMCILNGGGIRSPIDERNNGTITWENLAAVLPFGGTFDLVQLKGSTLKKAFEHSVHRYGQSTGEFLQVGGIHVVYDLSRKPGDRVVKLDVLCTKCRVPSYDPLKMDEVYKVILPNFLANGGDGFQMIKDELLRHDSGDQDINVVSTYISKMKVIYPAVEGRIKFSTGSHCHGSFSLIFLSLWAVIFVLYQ

Regarding `Cn1nc(O[C@H](c2ccnc(OCC(C)(F)F)c2)C(F)F)c2cc(-c3n[nH]c(=O)[nH]c3=O)nnc21`, the IC50 came to 0.04 nM.

Take `C[C@H](Nc1cc([C@@H](Oc2nn(C)c3nnc(-c4n[nH]c(=O)[nH]c4=O)cc23)C(F)F)ccn1)C(F)(F)F`: the IC50 is 0.04 nM. In the case of `C[C@@H](Nc1cc([C@@H](Oc2nn(C)c3nnc(-c4n[nH]c(=O)[nH]c4=O)cc23)C(F)F)ccn1)C(F)(F)F`, the IC50 was 0.04 nM.

With `COCCOc1cc([C@@H](Oc2nn(C)c3nnc(-c4n[nH]c(=O)[nH]c4=O)cc23)C(F)F)ccn1`, the half-inhibitory concentration (IC50) was 0.05 nM.
